This note sets out measurements from ChEMBL document CHEMBL1201862, “PubChem BioAssay data set” (2004).

Calls of active or inactive are those of the source. A value given as a limit tells only on which side of the number the result lay.

One may read the GI50 as the concentration at which growth is held to half of that of the control. For orientation: AC50 means the concentration giving half of the maximal activity seen. What is called EC50 is the concentration needed to bring the measured effect to its halfway point.

For test [1], the system named is SN12K1. As to the kind of experiment: cells. In kind it is functional. The conditions noted are these: Homo sapiens.
Test [2] deals with P388/ADR. Kind of test: cells. It counts as functional. The conditions noted are these: Mus musculus.
In test [3] the test system is P388. As to the kind of experiment: cells. The conditions noted are these: Mus musculus. In kind it is functional.
A short description of test [4]: off-target signal loss in HeLa-CEM21 co-culture – HeLa F-luc CTL cells, cherry-picked, counter-screen for HIV-1 Env fusion inhibitor project, dose response (AID 652040).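 Note: potency for signal decrease marking cytotoxic or nonspecific inhibition.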 In kind it is functional, cell-based.
A short description of test [5]: inhibitors of HIV Env-driven cell fusion, dose response, cherry-pick (AID 652057). In kind it is functional, cell-based.
Test [6] is described as follows: inhibitors of clade B AD8 Env fusion, dose response, cell-based, cherry-pick (AID 652062).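 Note: luciferase signal from cell-cell fusion driven by HIV-1 clade B AD8 Env; potency is for inhibitors of fusion seen as a drop in luminescence.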 It counts as functional.
The nature of test [7]: ZM109 Env clade C HIV-1 fusion inhibitors, dose response, HeLa effector, CEM target cells, luciferase, cherry-pick (AID 652058). In kind it is functional, cell-based.
A short description of test [8]: inhibitors of intracellular T. cruzi replication, confirmation, NIH3T3 host cells, beta-gal luminescence (AID 2044).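 Note: intracellular parasites grown in NIH/3T3 mouse fibroblasts as host cells; luminescent beta-galactosidase reporter signal from transgenic T. cruzi replicating inside host cells; inhibitors lower the luminescence signal.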 In kind it is functional, cell-based.
The nature of test [9]: cells. In kind it is functional, cell-based.
The nature of test [10]: HepG2 cell cytotoxicity, dose response, cytotoxicity control for Shn3 inhibitor project, CellTiter-Glo, cherry-picked (AID 624134). In kind it is functional, cell-based. (ATP-based viability assays read luminescence as a measure of living cells.)
Test [11] in a line: cytotoxicity toward NIH3T3 fibroblasts, dose response, counter-screen, cell-based, ATP luminescence, mouse fibroblasts (AID 2010).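 Note: cells exposed to compound for about 90 hours before reading.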 In kind it is functional. In general terms: A counterscreen serves to expose hits that act by an unwanted route or on another target.
Test [12] in a line: cells. It counts as functional, cell-based. The source holds these as a separate data set.
Test [13] in a line: control 3'UTR Renilla luciferase suppression, dose response, counter-screen for Shn3 inhibitor project, cell-based, Clone20-Shn3RL, cherry-picked (AID 624133). In kind it is functional.
The nature of test [14]: Shn3 3'UTR reporter inhibitors, dose response, cell-based, Clone20 osteoblasts, firefly luciferase, cherry-picked (AID 624132).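 Note: firefly luciferase luminescence from reporter carrying the Shn3 3'UTR in osteoblasts.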 It counts as functional.
In test [15] the test system is Streptococcus sp. 'group A'. As to the kind of experiment: growth inhibition of control SK(-) GAS strain, dose response, counter-screen for streptokinase expression inhibitor project, luminescence, kanamycin, BacTiterGlo, confirmation (AID 1900). In kind it is functional, organism-based.
Test [16] is described as follows: Luminescence Cell-Based Dose Retest to Confirm Inhibitors of Cancer Stem Cells. [Related pubchem assays (depositor defined):AID2717, AID2721]. It counts as functional. The conditions noted are these: Homo sapiens.
Test [17] concerns the target Cytochrome P450 2D6 (Homo sapiens, UniProt P10635).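 Note: CYP2D6 member of a cytochrome P450 panel assay.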
The test system of test [18] is Streptococcus. Kind of test: Group A Streptococcus viability loss, dose response, counter-screen for streptokinase expression inhibitor project, luminescence, BacTiterGlo (AID 1915).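 Note: potency for reduction of bacterial viability or growth.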 In kind it is functional, organism-based.
The target in test [19] is T1, Streptokinase A (Streptococcus pyogenes serotype M1, UniProt P10520).
T1 sequence (P10520 whole entry): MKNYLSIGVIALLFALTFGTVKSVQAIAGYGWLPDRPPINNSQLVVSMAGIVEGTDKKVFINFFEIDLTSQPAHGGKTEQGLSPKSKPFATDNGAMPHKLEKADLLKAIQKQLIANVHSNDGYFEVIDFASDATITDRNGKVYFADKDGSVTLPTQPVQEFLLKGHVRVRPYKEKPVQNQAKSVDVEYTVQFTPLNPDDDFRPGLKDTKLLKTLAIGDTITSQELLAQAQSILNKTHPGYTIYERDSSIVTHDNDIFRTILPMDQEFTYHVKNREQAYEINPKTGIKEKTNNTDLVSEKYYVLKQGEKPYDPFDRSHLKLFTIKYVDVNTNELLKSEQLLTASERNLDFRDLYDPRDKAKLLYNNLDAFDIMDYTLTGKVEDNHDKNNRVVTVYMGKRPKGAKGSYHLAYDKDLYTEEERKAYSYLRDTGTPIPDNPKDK
Kind of test: S. pyogenes streptokinase expression inhibitors, potency, dose response, plasminogen activation absorbance, OD405 (AID 1914).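 Note: secreted streptokinase activity via plasminogen activation per viability signal from cell pellet.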 In kind it is functional, Streptococcus pyogenes M1 GAS.

The target in test [20] is T2, Cytochrome P450 1A2 (Homo sapiens, UniProt P05177).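 Note: PubChem cytochrome P450 panel assay, CYP1A2 panel member.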
T2 sequence (P05177 whole entry): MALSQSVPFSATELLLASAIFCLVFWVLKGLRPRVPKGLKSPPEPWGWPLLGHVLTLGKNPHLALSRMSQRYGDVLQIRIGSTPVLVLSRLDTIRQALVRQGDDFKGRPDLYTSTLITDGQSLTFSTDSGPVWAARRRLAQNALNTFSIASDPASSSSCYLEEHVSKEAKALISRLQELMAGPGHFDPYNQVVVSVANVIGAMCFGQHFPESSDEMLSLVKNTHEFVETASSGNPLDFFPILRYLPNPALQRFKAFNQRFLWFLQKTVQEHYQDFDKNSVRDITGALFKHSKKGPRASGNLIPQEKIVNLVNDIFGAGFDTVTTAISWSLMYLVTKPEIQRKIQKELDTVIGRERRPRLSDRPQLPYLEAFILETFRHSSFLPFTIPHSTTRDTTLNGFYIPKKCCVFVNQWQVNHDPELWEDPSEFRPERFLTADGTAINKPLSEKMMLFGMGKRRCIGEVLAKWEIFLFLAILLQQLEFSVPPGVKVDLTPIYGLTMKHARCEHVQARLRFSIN

Test [21] deals with Cytochrome P450 3A4 (Homo sapiens, UniProt P08684).
Sequence of Cytochrome P450 3A4 (P08684 whole entry): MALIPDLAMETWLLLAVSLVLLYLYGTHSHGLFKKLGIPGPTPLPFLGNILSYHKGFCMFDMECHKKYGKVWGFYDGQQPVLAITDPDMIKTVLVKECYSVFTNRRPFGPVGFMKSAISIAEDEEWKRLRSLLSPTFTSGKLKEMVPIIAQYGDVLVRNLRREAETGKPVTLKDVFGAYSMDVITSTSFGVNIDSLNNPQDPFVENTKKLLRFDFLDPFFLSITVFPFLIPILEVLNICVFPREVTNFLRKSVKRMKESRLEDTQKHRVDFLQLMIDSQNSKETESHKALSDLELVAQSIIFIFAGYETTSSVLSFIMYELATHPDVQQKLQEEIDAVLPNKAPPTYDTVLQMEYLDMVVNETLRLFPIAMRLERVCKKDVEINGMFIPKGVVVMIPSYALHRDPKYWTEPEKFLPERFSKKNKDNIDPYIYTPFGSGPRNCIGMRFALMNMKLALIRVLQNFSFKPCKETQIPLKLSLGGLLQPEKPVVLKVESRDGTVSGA
Test [22] concerns the target Cytochrome P450 2C19 (Homo sapiens, UniProt P33261). As to the kind of experiment: Cytochrome panel assay with activity outcomes. Panel member name: p450-cyp2c19 Compounds with AC50 equal or less than 10 uM are considered active. It counts as functional. The conditions noted are these: read-out: AC50.
In test [23] the test system is HEK293. As to the kind of experiment: inhibitors of LMP1-driven NF-kB reporter, dose response, cell-based, HEK293, luciferase, cherry-pick (AID 588343). In kind it is functional. The conditions noted are these: Homo sapiens.
A short description of test [24]: Luminescence Cell-Based Dose Response HTS to Identify Inhibitors of 5'UTR Stem-Loop Driven Prion Protein mRNA Translation in H4 Neuroglioblastoma Cells. [Related pubchem assays: 1827 (Project Summary), 1813 (Primary HTS)]. In kind it is functional.
In test [25] the target is Luciferin 4-monooxygenase (Photinus pyralis, UniProt P08659). Kind of test: firefly luciferase enzyme inhibitors, dose response, biochemical, luminescence (AID 1891).
Sequence of Luciferin 4-monooxygenase (P08659 whole entry): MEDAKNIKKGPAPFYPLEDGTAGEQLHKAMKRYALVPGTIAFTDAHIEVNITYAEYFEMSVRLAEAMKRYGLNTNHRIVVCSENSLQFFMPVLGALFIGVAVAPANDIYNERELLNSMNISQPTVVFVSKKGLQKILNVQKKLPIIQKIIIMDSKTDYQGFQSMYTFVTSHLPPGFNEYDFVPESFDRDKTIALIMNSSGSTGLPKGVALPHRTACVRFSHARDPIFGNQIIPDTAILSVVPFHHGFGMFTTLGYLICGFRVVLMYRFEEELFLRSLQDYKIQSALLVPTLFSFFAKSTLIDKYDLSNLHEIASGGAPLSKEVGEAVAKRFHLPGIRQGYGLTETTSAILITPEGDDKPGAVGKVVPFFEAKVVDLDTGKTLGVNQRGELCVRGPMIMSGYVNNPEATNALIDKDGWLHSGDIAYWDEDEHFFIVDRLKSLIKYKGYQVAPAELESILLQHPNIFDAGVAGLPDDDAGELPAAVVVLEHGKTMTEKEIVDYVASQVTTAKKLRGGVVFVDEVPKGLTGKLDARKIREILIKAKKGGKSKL
Test [26] in a line: inhibitors of SNCA 5'UTR-driven reporter translation, confirmation, H4 neuroglioma cells, luminescence (AID 1988). In kind it is functional, cell-based.
The target of test [27] is Cytochrome P450 2C9 (Homo sapiens, UniProt P11712).
Sequence of Cytochrome P450 2C9 (P11712 whole entry): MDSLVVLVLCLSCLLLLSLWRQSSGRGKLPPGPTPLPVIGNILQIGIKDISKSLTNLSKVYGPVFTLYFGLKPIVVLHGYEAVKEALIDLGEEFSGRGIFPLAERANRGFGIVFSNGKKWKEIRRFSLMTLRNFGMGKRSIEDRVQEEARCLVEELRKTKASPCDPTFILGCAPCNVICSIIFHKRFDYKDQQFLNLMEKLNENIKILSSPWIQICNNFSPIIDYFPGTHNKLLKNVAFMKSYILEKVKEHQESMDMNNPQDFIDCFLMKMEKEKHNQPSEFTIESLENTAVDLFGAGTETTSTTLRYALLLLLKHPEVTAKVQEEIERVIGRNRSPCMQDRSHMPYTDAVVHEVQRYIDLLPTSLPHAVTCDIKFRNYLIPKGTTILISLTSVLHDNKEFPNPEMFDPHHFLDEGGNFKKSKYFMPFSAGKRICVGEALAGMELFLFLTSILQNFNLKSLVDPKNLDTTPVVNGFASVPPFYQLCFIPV
A short description of test [28]: inhibitors of firefly luciferase expression or activity, dose response, H4 neuroglioma cells, luminescence (AID 1990). In kind it is functional, cell-based.
Test [29] can be described thus: Luminescence Cell-Based Dose Confirmation HTS to Identify Inhibitors of Platelet Dense Granule Release. [Related pubchem assays: 1663 (Primary HTS), 1678 (Summary of Project)]. In kind it is functional.

Sequence of Cytochrome P450 2D6 (P10635 whole entry): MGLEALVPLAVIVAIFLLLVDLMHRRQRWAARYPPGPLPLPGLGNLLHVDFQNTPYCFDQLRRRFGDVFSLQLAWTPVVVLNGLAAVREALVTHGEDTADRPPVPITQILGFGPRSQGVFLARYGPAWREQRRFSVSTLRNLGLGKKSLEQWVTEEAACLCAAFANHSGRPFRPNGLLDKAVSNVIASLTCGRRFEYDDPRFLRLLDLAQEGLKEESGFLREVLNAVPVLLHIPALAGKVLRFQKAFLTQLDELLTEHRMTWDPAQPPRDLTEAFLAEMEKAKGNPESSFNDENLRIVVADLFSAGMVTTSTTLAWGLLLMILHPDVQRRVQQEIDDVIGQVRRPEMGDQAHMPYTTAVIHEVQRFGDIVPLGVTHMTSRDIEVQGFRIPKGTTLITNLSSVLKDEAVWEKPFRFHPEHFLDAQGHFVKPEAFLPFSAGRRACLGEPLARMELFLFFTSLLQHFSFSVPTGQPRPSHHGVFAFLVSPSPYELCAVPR
Sequence of Cytochrome P450 2C19 (P33261 whole entry): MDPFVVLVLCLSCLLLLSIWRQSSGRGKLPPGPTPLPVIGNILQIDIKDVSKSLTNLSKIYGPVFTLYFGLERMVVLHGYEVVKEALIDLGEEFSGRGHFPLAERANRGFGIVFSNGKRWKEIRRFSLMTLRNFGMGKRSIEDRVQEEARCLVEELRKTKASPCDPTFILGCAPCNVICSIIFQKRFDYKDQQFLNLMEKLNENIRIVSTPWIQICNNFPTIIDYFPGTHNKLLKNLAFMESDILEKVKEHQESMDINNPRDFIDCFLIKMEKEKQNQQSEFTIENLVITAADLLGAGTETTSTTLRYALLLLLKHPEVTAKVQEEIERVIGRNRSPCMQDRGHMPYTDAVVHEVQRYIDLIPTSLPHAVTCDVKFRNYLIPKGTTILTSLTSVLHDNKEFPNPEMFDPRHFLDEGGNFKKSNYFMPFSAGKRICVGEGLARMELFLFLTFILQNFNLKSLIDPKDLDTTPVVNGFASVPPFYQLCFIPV

Regarding `O=NN(CCF)C(=O)NC1CC2CCC1C2` (stereo not drawn), the GI50 in test [1] was > 100 µM (inactive); in [2], 24.5 µM (inactive); in test [3], 15.8 µM (inactive).
Take `Cc1ccc(S(=O)(=O)N2CCC(=O)N(CCOCc3ccc(C(F)(F)F)cc3)CC2)cc1`: the AC50 was 14.6 µM (active) in test [4], 5.79 µM (active) in test [5], 6.53 µM (active) in [6] and 3.68 µM (active) in test [7].
`O=C(NNC(=O)c1cccnc1SCc1cccc([N+](=O)[O-])c1)c1ccccn1`: the EC50 in [8] is 0.994 µM (active); in test [9], 27.8 µM (active); in test [11], 1.65 µM (active); in [12], > 350 µM (not active). Besides, the figures for the AC50 in [10], in test [13] and in test [14] were 7.84 µM (active), 1.32 µM (active) and 1.9 µM (active), respectively.
As to `CCC/C=C(\CCC)C(NS(=O)(=O)c1ccc(C(F)(F)F)cc1)c1ccccc1` (stereo not drawn), the concentration for a half-maximal effect (EC50) is 2.73 µM (active) in test [15], 22.5 µM (active) in test [18] and 2.24 µM (active) in [19]. Moreover, the AC50 in test [16] is 3.36 µM (active); in test [17] it was 20 µM (inconclusive).
With `CCC(C)NC(=O)Cn1cnc2sc(C)cc2c1=O` (stereo not drawn), the AC50 in test [20] is 6.31 µM (inconclusive); in [17], 25.1 µM (inconclusive).
As for `O=C(c1ccc2ncsc2c1)N1CCN(c2nc3ccccc3s2)CC1`, the concentration at half-maximal activity (AC50) in test [4] is 3.19 µM (active); in [5] it was 4.18 µM (active); in test [6] it was 8.65 µM (active); in test [7] it was 8.38 µM (active).
For the compound `Cn1cc([N+](=O)[O-])c(C(=O)Nc2sc3c(c2C#N)CCC3)n1`, the AC50 in [10] was 8.93 µM (active); in test [14], 0.88 µM (active).
Regarding `CCNc1ncc2nc(-c3ccc(F)cc3)c(=O)n(-c3ccc(OC)cc3)c2n1`, the AC50 in [21] was 20 µM (inconclusive); in test [20] it was 6.31 µM (inconclusive); in test [17] it was 0.158 µM (inconclusive).
`CC1(C)CC2(CCO1)OC(=O)CC2C(=O)NCCc1ccccc1` (stereo not drawn): the AC50 in test [21] is 28.2 µM (inconclusive); in [22], 25.1 µM (inconclusive); in test [17], 22.4 µM (inconclusive).
Regarding `CCCCN1C2CCCC1CC(NC(=O)C1CCCCC1)C2` (stereo not drawn), the AC50 in test [23] was 237 µM (active).
Turning to `CCN(C[C@H]1N[C@@](C)(C(=O)OC)[C@H]2C(=O)N(Cc3ccccc3)C(=O)[C@@H]12)S(=O)(=O)c1ccc(C)cc1`, the AC50 is 21.4 µM (active) in test [4], 5.73 µM (active) in test [5], 69.3 µM (active) in [6] and 15 µM (active) in test [7].
As for `O=C(Cn1ccnc1[N+](=O)[O-])N(CCO)CCO`, the GI50 in test [1], in [2] and in test [3] was > 1250 µM (inactive) in each case.
Regarding `C[C@H]1CN([C@@H](C)CO)C(=O)Cc2cc(NC(=O)Cc3ccccc3)ccc2O[C@H]1CN(C)S(=O)(=O)c1cccs1`, the AC50 in test [4] is 2.4 µM (active); in test [5] it was 1.48 µM (active); in test [6] it was 3.35 µM (active); in test [7] it was 2.26 µM (active).
For the compound `CCN1CCN(Cc2ccc(NC(=O)c3ccc(C)c(NC(=O)c4ccno4)c3)cc2C(F)(F)F)CC1`, the AC50 in test [23] was 0.0518 µM (active).
On to `CCOC(=O)C1=C(C(C)=O)CSC(c2ccccc2)=N1`, for which the GI50 in test [1] was > 100 µM (inactive); in [2] it was 68.5 µM (inactive); in [3], > 100 µM (inactive).
For `O=C(c1ccccc1O)c1cc(-c2ncc3c(=O)c4ccccc4oc3n2)c(-c2ccccc2O)[nH]c1=O`, the GI50 in test [1] is 17.5 µM (inactive); in test [2] it was 22.4 µM (inactive); in test [3] it was 19.7 µM (inactive).
For `COc1cccc(-c2nc3c(C(=O)NCCN(C)C)cccc3[nH]2)c1` the same measures were 12.4 µM (inactive), 13.7 µM (inactive) and 4.45 µM (inactive).
Turning to `COC(=O)C(C/C=C(\C)c1ccccc1)C(C)=O` (stereo not drawn), the GI50 in test [1] is 45.2 µM (inactive); in test [2], 29 µM (inactive); in [3], 27.2 µM (inactive).
As to `COC(=O)[C@]1(c2ccc(N(C)C)cc2OC)C[C@@H]2CCCN(CCc3c1[nH]c1ccccc31)C2`, the results for the GI50 in test [1], in [2] and in [3] were 17.4 µM (inactive), 18.1 µM (inactive) and 16.7 µM (inactive), respectively.
As to `COc1ccc(OC)c(CN2C(=O)c3ccccc3C2c2nnnn2-c2c(C)cccc2C)c1` (stereo not drawn), the AC50 is 19 µM (active) in test [4], 4.69 µM (active) in test [5] and 3.93 µM (active) in [7].
For `COc1cc(C2c3cc4c(cc3[C@@H](Nc3ccc(F)cc3)C3COC(=O)[C@H]23)OCO4)cc(OC)c1O` (stereo partly drawn), the GI50 in [2] is 0.09 µM (active); in test [3], < 0.01 µM (active).
Take `CCOC(=O)C1=C(c2ccccc2)N=c2s/c(=C\c3ccco3)c(=O)n2C1c1cccs1` (stereo not drawn): the AC50 is 22.4 µM (inconclusive) in test [21] and 15.8 µM (inconclusive) in test [17].
Take `Cc1ccccc1CN1CC2=C(CCN(Cc3ccccc3)C2=O)N2CCN=C12`: the half-maximal activity concentration (AC50) is 3.31 µM (active) in test [10], 29.6 µM (active) in test [13] and 2.41 µM (active) in test [14].
Regarding `CC(C)(C)n1nc(-c2ccc(Cl)cc2)c2c(N)ncnc21`, the EC50 in test [24] was 12.4 µM (active); in [25], 23.3 µM (active); in test [26], 6.21 µM (active); in test [28] it was 7.3 µM (active); in test [29], 5.58 µM (active). Besides, the results for the half-maximal activity concentration (AC50) in [23] and in test [27] were 12.2 µM (active) and 7.08 µM (inconclusive), respectively.
